In patent publication US8017807B2, “Tetrahydroxy compound, method for preparing the tetrahydroxy compound, and photoreceptor using the tetrahydroxy compound” (Ricoh Company Limited, priority 2005, dated 2011):

Assays:
[1] = Solubility to alcohol (methanol), visual observation; type: physicochemical; parameters: key to Solubility to methanol, solid content 5% by weight / Solubility to methanol, solid content 10% by weight / Solubility to methanol, solid content 20% by weight / Solubility to methanol, solid content 30% by weight / Solubility to methanol, solid content 40% by weight / Solubility to methanol, solid content 50% by weight / Solubility to methanol, solid content 60% by weight: ◯: The compound is perfectly dissolved in methanol, and the resultant liquid contains no solid material.; X: The compound is imperfectly dissolved in methanol and the resultant liquid contains a solid material or is opaque (i.e., is not transparent); details: for Solubility to methanol, solid content 5% by weight / Solubility to methanol, solid content 10% by weight / Solubility to methanol, solid content 20% by weight / Solubility to methanol, solid content 30% by weight / Solubility to methanol, solid content 40% by weight / Solubility to methanol, solid content 50% by weight / Solubility to methanol, solid content 60% by weight: methanol solution, one hour at room temperature, visual
Method: Each of the compound of Example 1 and comparative compounds (6) to (9) was dissolved in methanol to prepare methanol solutions thereof having a solid content of 5%, 10%, 20%, 30%, 40%, 50% or 60% by weight. Alter the solutions were allowed to settle for one hour at room temperature, the solutions were visually observed to determine the solubility of the compounds to methanol. The solubility to methanol was graded as follows:
◯: The compound is perfectly dissolved in methanol, and the resultant liquid contains no solid material.
X: The compound is imperfectly dissolved in methanol and the resultant liquid contains a solid material or is opaque (i.e., is not transparent).

[2] = Film formability when mixed 1:1 with alcohol-soluble polyamide resin (CM8000), blade-coated layer; type: physicochemical; parameters: key to Film formability: ◯: The resultant layer is transparent.; X: The resultant layer is opaque due to crystallization of the compounds or bad compatibility with the resin; details: for Film formability: 1:1 by weight with polyamide resin CM8000, solid content 20% by weight, 20 μm layer on aluminum plate, dried at 23° C.; for Film formability (in words): mixed with an alcohol-soluble resin
Method: In addition, each of the compound of Example 1 and comparative compounds (6) to (9) was mixed with an alcohol-soluble polyamide resin (CM8000 from Toray Industries, Inc.) in a weight ratio of 1:1 such that the solid content of the mixture is 20% by weight. Each of the mixtures was coated on an aluminum plate by a blade coating method and then dried at room temperature (23° C.) to prepare a layer with a thickness of 20 μm. The thus prepared layers were visually observed to determine the film formability of the layers. The film formability was graded as follows:
◯: The resultant layer is transparent.
X: The resultant layer is opaque due to crystallization of the compounds or bad compatibility with the resin.

[3] = Solubility to alcohol (methanol), visual observation; type: physicochemical; details: background section, no method given
[4] = Crosslinked outermost layer of photoreceptor from methanol coating liquid; image formation; details: with methyl trimethoxy silane in methanol
Method: Preparation of Crosslinked Charge Transport Layer Using Sol-Gel Method
The following components were mixed.
The mixture was agitated for one hour at room temperature to perform a reaction. Then 53.4 mg of tris(2,4-pentanedionate)aluminum (III) was added to the mixture to prepare a coating liquid including methanol as a solvent.
The coating liquid was coated on the above-prepared charge transport layer by a spray coating method and then dried to form an outermost layer with a thickness of 2 μm. The photoreceptor was heated for 1 hour at 130° C. to crosslink the outermost layer.
The photoreceptor was set in the main body of the image forming apparatus (IMAGIO NEO) to produce images. The resultant images had good image qualities.
The procedure for preparation of the outermost layer in Applied Example 1 was repeated except that the compound of Example 1 was replaced with each of the comparative compounds (6) to (9).

Structure (SMILES) | Solubility to methanol (in words) [1] | Solubility to methanol, solid content 5% by weight [1] | Solubility to methanol, solid content 10% by weight [1] | Solubility to methanol, solid content 20% by weight [1] | Solubility to methanol, solid content 30% by weight [1] | Solubility to methanol, solid content 40% by weight [1] | Solubility to methanol, solid content 50% by weight [1] | Solubility to methanol, solid content 60% by weight [1] | Film formability [2] | Solubility to methanol (present inventors' study of prior-art compounds) [3] | Preparation of outermost layer coating liquid in methanol [4] | Film formability (in words) [2]
Cc1ccc(N(c2ccc(C)cc2)c2ccc(C(C)(c3ccc(O)cc3)c3ccc(O)cc3)cc2)cc1 [Comp. compound (6)] | poor solubility to methanol | ◯ | ◯ | ◯ | ◯ | X | X | X | X |  | coating liquids could not be prepared | 
Cc1ccc(N(c2ccc(C)cc2)c2ccc(C=C(c3ccc(OCCO)cc3)c3ccc(OCCO)cc3)cc2)cc1 [Comp. compound (9)] | poor solubility to methanol | X | X | X | X | X | X | X |  |  | coating liquids could not be prepared | 
Cc1ccc(N(c2ccc(C)cc2)c2ccc(C(C)(c3ccc(O)cc3)c3ccc(O)cc3)cc2)cc1 [1,1-bis(4-hydroxyphenyl)-1-[4-(paraditolylamino)phenyl]ethane] |  |  |  |  |  |  |  |  |  | insufficient |  | 
CCc1ccc(N(c2ccc(CCO)cc2)c2ccc(CCO)cc2)cc1C [Comp. compound (8)] |  | ◯ | ◯ | ◯ | ◯ | X | X | X | X |  | coating liquid could be prepared | 
Oc1cccc(N(c2ccccc2)c2ccc(-c3ccc(N(c4ccccc4)c4cccc(O)c4)cc3)cc2)c1 [Comp. compound (7)] | poor solubility to methanol | ◯ | ◯ | ◯ | X | X | X | X | X |  | coating liquids could not be prepared | 

Continued, in another order:

Solubility to methanol (in words) [1] | Solubility to methanol, solid content 5% by weight [1] | Solubility to methanol, solid content 10% by weight [1] | Solubility to methanol, solid content 20% by weight [1] | Solubility to methanol, solid content 30% by weight [1] | Solubility to methanol, solid content 40% by weight [1] | Solubility to methanol, solid content 50% by weight [1] | Solubility to methanol, solid content 60% by weight [1] | Film formability [2] | Solubility to methanol (present inventors' study of prior-art compounds) [3] | Preparation of outermost layer coating liquid in methanol [4] | Structure (SMILES) | Film formability (in words) [2]
good solubility to methanol | ◯ | ◯ | ◯ | ◯ | ◯ | ◯ | ◯ | ◯ |  |  | Cc1ccc(N(c2ccc(C)cc2)c2ccc(C=C(c3ccc(OCC(O)CO)cc3)c3ccc(OCC(O)CO)cc3)cc2)cc1 (stereo not shown) [Compound of Ex. 1, N-{4-[2,2-bis(4-(2,3-dihydroxypropyloxy)phenyl)vinyl]phenyl}-N,N-bis(4-tolyl)amine] | good film formability
 |  |  |  |  |  |  |  |  | insufficient |  | Oc1cccc(N(c2ccccc2)c2ccc(-c3ccc(N(c4ccccc4)c4cccc(O)c4)cc3)cc2)c1 [N,N′-diphenyl-N,N′-bis(3-hydroxyphenyl)-[1,1′-biphenyl]-4,4′-diamine] | 
as good solubility to methanol |  |  |  |  |  |  |  |  |  |  | OCC(O)COc1ccc(N(c2ccccc2)c2ccc(-c3ccc(N(c4ccccc4)c4ccc(OCC(O)CO)cc4)cc3)cc2)cc1 (stereo not shown) [Example 2, N,N′-diphenyl-N,N′-bis[4-(2,3-dihydroxypropyloxy)phenyl]benzidine] | as good solubility to methanol and film formability as the compound of Example 1
